In publication doi:10.1101/2024.07.10.602890, “H105A peptide eye drops promote photoreceptor survival in murine and human models of retinal degeneration” (bioRxiv, 2024):
Ends that are not written are not given here.

Test: Stability of peptide H105A against temperature (Table S2)
Type: physicochemical
Description: Lyophilized peptides were dissolved in sterile HBSS at 1 mg/ml and stored at −20 °C. Before the peptides were used, the peptide solution was brought to room temperature and subjected to centrifugation (Eppendorf, Centrifuge 5430R) at 20,800 g for 10 min at 4°C to clear and separate particulate material. In case a precipitate was found, the pH of the solution was adjusted to neutral pH with either NaOH or HCl and all peptides were soluble. The concentration of peptide solutions was determined using spectrophotometry (NanoDrop, Thermo Fisher Scientific).
Table S2. Stability of 17-mer[H105A] peptide.
Concentration (mg/mL) Store Concentration (mg/mL)
*FT, Freeze and thaw cycles daily

Measured: Concentration Day1

QRTESIIARALYYDLIS [H105A]
1040 µg/mL: sample 1, before storage at RT, peptide solution, spectrophotometry (NanoDrop) | sample 2, before storage at 4°C | sample 3, before storage at -20°C | sample 4, before storage at -20°C [FT]
